According to ChEMBL document CHEMBL1201862, “PubChem BioAssay data set” (2004):
The source made the active and inactive calls.

Columns and labels:
[1] = target: Trypsin (Sus scrofa, UniProt P00761); assay: trypsin protease activity blockade – biochemical, quenched peptide fluorescence, cherry-pick, selectivity assay for Rce1 protease inhibitor project, dose response (AID 488789)
[2] = target: T1, CAAX prenyl protease 2 (Saccharomyces cerevisiae S288c, UniProt Q03530); type: biochemical
T1 sequence (Q03530 whole entry): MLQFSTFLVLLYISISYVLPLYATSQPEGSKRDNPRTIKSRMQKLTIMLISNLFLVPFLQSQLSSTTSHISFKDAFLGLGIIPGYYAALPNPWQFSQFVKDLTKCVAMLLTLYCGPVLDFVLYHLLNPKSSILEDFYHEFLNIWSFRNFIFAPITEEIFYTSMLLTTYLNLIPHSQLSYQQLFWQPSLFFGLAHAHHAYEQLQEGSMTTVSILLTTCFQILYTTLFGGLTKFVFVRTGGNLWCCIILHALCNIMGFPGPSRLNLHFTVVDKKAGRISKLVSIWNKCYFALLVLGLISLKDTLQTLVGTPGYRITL

[3] = target: Cytochrome P450 2D6 (Homo sapiens, UniProt P10635);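 note: CYP2D6 member of a cytochrome P450 panel assay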
Cytochrome P450 2D6, sequence (P10635 whole entry): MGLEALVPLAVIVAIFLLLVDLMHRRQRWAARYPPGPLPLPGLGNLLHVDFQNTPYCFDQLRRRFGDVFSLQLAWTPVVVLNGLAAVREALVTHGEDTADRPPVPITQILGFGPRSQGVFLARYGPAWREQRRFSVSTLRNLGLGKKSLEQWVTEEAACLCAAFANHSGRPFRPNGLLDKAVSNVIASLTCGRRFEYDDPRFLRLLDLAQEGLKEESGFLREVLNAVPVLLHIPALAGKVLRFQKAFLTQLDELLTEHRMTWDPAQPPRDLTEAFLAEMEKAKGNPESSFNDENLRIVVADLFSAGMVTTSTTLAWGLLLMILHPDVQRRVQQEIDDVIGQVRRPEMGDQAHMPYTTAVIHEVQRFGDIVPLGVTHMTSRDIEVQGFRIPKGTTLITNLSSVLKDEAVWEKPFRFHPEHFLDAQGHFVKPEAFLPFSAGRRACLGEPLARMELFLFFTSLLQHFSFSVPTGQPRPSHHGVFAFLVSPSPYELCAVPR

[4] = target: Cytochrome P450 2C9 (Homo sapiens, UniProt P11712)
Cytochrome P450 2C9, sequence (P11712 whole entry): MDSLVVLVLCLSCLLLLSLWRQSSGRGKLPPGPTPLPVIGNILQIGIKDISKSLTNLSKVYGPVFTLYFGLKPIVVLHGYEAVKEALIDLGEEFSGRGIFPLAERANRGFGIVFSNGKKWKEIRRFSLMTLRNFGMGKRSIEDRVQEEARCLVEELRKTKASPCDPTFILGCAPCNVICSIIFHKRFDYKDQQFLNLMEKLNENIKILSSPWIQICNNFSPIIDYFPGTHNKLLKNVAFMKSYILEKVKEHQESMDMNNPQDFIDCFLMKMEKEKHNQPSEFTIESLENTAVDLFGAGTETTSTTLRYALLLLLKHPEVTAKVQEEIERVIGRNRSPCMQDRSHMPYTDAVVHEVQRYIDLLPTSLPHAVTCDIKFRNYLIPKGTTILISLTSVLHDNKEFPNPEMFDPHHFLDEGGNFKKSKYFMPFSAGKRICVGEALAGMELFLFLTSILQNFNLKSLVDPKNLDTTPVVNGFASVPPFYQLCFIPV

[5] = target: Glyceraldehyde-3-phosphate dehydrogenase (Homo sapiens, UniProt P04406)
Glyceraldehyde-3-phosphate dehydrogenase, sequence (P04406 whole entry): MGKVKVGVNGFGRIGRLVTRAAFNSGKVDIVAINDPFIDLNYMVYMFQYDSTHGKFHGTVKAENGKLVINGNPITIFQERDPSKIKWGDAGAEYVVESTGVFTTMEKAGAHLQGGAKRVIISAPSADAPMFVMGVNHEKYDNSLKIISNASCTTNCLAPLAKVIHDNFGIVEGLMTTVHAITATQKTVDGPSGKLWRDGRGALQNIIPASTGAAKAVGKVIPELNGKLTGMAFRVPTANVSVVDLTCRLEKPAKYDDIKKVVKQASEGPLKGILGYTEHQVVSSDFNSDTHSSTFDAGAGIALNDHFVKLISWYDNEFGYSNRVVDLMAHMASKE

[6] = target: T2, Alkaline phosphatase, tissue-nonspecific isozyme (Homo sapiens, UniProt P05186); assay: potency against alkaline phosphatase TNAP – biochemical, luminescent, dose response, SAR follow-up (AID 1056)
T2 sequence (P05186 whole entry): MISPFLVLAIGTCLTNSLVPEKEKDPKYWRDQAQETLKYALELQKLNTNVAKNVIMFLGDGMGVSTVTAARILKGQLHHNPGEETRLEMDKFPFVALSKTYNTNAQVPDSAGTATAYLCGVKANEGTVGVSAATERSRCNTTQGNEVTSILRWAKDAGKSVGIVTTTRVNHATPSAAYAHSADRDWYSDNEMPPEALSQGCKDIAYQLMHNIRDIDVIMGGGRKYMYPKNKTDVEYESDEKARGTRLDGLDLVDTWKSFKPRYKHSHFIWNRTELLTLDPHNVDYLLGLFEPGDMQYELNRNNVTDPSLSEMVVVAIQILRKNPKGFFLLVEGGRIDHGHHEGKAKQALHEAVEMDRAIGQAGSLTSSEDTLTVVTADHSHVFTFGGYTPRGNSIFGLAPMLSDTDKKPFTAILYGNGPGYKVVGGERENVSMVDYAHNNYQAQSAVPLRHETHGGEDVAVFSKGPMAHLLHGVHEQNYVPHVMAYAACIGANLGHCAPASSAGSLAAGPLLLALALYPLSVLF

[7] = target: T3, Protein skinhead-1 (Caenorhabditis elegans, UniProt P34707); type: functional
T3 sequence (P34707 whole entry): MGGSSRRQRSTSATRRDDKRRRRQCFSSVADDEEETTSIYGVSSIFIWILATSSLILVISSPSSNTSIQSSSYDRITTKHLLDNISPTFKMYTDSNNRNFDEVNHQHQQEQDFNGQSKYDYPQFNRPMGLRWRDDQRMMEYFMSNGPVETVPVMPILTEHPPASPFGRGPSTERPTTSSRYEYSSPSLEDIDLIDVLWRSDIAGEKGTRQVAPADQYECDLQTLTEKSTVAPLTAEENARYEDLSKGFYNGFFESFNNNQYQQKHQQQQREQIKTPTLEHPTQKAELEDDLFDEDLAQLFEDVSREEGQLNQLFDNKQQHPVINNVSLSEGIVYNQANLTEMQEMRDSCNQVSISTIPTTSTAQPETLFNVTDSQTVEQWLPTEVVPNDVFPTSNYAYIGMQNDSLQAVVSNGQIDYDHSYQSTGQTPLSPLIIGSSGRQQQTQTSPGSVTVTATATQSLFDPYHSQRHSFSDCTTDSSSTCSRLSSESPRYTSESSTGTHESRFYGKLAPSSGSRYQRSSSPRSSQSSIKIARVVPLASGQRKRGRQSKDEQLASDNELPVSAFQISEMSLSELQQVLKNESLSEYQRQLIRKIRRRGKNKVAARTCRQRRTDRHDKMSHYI

[8] = target: T4, X-box-binding protein 1 (Homo sapiens, UniProt P17861); type: functional, Cricetulus griseus;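 note: confirmatory dose-response counter-screen serving a CHOP assay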
T4 sequence (P17861 whole entry): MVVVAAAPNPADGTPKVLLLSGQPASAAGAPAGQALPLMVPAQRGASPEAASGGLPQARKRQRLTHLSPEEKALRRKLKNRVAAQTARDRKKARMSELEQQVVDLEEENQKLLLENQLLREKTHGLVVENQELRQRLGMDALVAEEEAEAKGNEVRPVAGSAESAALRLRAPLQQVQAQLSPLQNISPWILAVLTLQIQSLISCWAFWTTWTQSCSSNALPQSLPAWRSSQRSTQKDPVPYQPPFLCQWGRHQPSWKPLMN

[9] = target: T5, Bcl-2-like protein 10 (Homo sapiens, UniProt Q9HD36); assay: Bcl-B/TR3 peptide binding disruption – biochemical, fluorescence polarization, FITC-TR3 peptide, selectivity assay for Bfl-1 inhibitor project, primary screen (AID 748);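 note: fluorescence polarization from a fluorescein-labelled TR3 peptide binding purified Bcl-B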
T5 sequence (Q9HD36 whole entry): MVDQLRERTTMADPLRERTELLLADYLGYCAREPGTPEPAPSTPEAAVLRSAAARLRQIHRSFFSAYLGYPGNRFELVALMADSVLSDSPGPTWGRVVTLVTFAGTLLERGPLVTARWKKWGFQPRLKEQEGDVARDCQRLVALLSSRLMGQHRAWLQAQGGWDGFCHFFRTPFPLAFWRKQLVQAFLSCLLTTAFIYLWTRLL

[10] = target: G-protein coupled receptor 55 (Homo sapiens, UniProt Q9Y2T6); assay: inhibition of LPI-stimulated GPR55 beta-arrestin translocation – imaging, U2OS, beta-arrestin-GFP, LPI agonist, primary screen (AID 2013); type: functional;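 note: antagonist potency measured as reduced agonist-driven arrestin aggregation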
G-protein coupled receptor 55, sequence (Q9Y2T6 whole entry): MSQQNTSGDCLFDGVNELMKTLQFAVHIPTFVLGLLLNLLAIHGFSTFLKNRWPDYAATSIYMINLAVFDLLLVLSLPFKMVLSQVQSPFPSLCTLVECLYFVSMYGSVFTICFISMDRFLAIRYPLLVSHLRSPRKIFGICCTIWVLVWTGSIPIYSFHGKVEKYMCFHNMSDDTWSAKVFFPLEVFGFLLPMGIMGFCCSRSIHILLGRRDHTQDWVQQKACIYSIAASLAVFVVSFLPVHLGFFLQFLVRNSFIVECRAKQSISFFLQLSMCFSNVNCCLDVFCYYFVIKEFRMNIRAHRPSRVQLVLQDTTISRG

[11] = target: Protein-tyrosine kinase 2-beta (Homo sapiens, UniProt Q14289);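 note: potency of inhibitors of PYK2 kinase phosphorylation of poly-GT substrate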
Protein-tyrosine kinase 2-beta, sequence (Q14289 whole entry): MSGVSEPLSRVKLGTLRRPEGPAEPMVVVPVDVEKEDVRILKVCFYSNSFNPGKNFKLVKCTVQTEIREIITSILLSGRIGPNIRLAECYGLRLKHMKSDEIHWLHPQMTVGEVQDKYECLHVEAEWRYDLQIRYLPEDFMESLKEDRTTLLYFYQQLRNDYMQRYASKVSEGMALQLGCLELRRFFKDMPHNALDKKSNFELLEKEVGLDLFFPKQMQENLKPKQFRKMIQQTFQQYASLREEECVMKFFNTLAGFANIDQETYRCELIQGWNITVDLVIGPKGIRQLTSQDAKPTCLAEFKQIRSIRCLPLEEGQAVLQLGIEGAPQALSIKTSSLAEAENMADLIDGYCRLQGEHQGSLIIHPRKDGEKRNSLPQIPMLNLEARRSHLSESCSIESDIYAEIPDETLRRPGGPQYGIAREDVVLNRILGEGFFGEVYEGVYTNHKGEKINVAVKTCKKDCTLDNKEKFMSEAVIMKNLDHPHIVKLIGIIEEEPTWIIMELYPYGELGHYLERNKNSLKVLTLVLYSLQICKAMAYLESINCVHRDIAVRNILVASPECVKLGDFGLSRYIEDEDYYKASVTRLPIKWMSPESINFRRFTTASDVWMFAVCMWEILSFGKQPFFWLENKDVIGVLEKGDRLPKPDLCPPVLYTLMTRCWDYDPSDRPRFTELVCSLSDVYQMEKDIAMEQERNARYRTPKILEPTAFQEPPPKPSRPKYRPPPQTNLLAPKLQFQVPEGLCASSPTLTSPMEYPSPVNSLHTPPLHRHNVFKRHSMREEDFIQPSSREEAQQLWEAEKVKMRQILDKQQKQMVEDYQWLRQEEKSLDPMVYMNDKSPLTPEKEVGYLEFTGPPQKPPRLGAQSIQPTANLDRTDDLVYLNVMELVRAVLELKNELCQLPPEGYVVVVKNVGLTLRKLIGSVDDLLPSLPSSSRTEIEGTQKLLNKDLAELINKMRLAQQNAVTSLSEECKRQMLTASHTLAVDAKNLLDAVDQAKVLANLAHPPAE

[12] = target: T6, Coagulation factor XII (Homo sapiens, UniProt P00748); type: functional;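 note: activated factor XIIa alpha cleaving a fluorogenic AMC peptide substrate; inhibitor potency from loss of enzyme activity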
T6 sequence (P00748 whole entry): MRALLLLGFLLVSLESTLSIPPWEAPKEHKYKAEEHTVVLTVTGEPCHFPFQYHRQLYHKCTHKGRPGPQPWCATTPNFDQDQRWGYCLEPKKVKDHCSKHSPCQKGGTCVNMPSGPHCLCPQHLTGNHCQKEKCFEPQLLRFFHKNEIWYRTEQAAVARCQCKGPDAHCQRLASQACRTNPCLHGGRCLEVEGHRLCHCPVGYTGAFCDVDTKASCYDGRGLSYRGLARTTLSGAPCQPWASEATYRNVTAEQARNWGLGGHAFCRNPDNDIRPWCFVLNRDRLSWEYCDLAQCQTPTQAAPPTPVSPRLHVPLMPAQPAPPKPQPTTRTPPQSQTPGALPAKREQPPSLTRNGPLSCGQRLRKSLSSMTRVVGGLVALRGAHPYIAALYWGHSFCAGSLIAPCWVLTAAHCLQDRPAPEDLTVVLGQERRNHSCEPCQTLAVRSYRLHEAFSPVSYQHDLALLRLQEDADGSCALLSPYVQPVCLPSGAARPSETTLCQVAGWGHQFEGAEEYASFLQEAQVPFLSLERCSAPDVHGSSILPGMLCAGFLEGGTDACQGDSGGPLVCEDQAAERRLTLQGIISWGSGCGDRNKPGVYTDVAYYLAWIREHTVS

[13] = target: Troponin, cardiac muscle (Homo sapiens, UniProt P19429+P45379+P63316); assay: Fluorescence-based biochemical high throughput dose response assay for activators of the calcium sensitivity of cardiac Regulated Thin Filaments (RTF). [Related pubchem assays (depositor defined):AID493008, AID493018, AID504382, AID504383]; type: protein-complex assay
[14] = decrease of insulin promoter-GFP reporter – imaging, high-content screening, mouse beta cells (AID 1628); type: functional; conditions: MIN6
[15] = tested on: BJ; assay: BJ-TERT fibroblast viability loss – cell-based, RAS-independent, luminescence, dose response (AID 1933); type: functional; conditions: Homo sapiens
[16] = MIN6 cell viability loss – mouse insulinoma, cytotoxicity control, dose response (AID 2122); type: functional;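 note: confirmatory high-throughput counterscreen run to flag cytotoxic compounds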
[17] = tested on: BJ; assay: cells; type: functional, cell-based; conditions: Homo sapiens
[18] = tested on: BJ; assay: BJ-TERT-LT-ST fibroblast viability loss – cell-based, RAS-independent, luminescence, dose response (AID 1935); type: functional; conditions: Homo sapiens;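 note: BJ fibroblasts immortalized with TERT plus LT and ST oncogenes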
[19] = DRD fibroblast viability loss – cell-based, non-viral oncogenic, luminescence, dose response (AID 1934); type: functional; conditions: Homo sapiens
[20] = target: FAD-linked sulfhydryl oxidase ALR (Homo sapiens, UniProt P55789); assay: ALR-catalysed DTT oxidation blockers – biochemical, H2O2 detection, luminescence, cherry-pick, dose response (AID 493248)
FAD-linked sulfhydryl oxidase ALR, sequence (P55789 whole entry): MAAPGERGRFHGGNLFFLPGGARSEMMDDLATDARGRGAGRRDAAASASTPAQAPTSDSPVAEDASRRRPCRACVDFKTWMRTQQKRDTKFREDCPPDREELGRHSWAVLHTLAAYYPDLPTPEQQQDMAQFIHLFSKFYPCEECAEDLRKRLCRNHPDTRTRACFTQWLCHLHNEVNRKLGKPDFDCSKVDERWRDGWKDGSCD

[21] = target: Nonstructural protein 1 (Influenza A virus, UniProt Q194T2); type: functional, Influenza A virus (A/California/07/2009(H1N1))
Nonstructural protein 1, sequence (Q194T2 whole entry): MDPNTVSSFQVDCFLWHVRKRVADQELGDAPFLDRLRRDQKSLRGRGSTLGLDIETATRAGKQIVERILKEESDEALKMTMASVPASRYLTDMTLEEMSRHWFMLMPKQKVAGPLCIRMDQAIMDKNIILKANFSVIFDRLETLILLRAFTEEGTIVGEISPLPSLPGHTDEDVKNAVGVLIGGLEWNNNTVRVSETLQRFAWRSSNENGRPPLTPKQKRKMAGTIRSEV

[22] = Luminescence Cell-Based Dose Retest to Confirm Inhibitors of Cancer Stem Cells. [Related pubchem assays (depositor defined):AID2717, AID2721]; type: functional; conditions: Homo sapiens
[23] = target: T7, Hexokinase (Trypanosoma brucei, UniProt Q38C41); assay: Confirmation assay for inhibitors of Trypanosoma brucei hexokinase 1-Analogue-first series. [Related pubchem assays (depositor defined):AID1430, AID1632, AID2516, AID2560, AID2579, AID2600, AID449725, AID492951]; type: functional
T7 sequence (Q38C41 whole entry): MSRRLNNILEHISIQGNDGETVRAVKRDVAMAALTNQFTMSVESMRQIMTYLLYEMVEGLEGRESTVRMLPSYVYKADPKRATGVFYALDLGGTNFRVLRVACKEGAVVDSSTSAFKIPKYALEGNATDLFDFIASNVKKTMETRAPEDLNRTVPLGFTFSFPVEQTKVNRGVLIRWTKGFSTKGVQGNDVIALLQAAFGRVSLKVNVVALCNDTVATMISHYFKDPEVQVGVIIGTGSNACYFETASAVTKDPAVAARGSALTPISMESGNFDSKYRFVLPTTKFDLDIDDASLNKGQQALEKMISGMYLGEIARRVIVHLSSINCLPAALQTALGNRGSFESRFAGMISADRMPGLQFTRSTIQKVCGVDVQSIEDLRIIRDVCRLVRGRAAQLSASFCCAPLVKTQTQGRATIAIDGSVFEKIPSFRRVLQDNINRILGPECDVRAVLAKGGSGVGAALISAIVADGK

[24] = tested on: HEK293; assay: EBV LMP1 TES2 canonical NF-kB signalling blockers – cell-based, HEK293, luciferase, cherry-pick, dose response (AID 588343); type: functional; conditions: Homo sapiens

Trypsin, sequence (P00761 whole entry): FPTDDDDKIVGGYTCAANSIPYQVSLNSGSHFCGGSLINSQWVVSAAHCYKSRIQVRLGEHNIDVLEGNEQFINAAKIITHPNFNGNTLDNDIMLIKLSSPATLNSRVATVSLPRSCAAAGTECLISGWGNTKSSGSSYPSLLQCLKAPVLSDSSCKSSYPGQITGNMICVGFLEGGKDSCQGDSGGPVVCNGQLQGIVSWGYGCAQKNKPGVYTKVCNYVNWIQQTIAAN

SMILES: Cc1cc(C)n2cc(CSc3nncn3C)nc2n1
- AC50 [1]: 8.35 µM (active)
- AC50 [2]: 13.8 µM (active)

SMILES: O=c1c(-c2nnc(SCc3ccc(Cl)c(Cl)c3)o2)cccn1Cc1ccccc1
- AC50 [2]: 11 µM (active)
- AC50 [3]: 28.2 µM (inconclusive)
- AC50 [4]: 15.8 µM (inconclusive)

SMILES: COC(=O)c1cc(-c2ccc(Br)cc2)n[nH]1
- IC50 [5]: > 100 µM (not active)
- IC50 [6]: > 100 µM (inactive)
- IC50 [7]: > 100 µM (inactive)

SMILES: CCN(CC)CCOC(=O)c1ccc(N/C=C(/C#N)c2nc(-c3cccc(OC)c3)cs2)cc1
- Absolute IC50 (XBP1) [8]: 10 µM

SMILES: Cc1c(NC(=O)c2cc3nc(-c4ccccc4)cc(C)n3n2)c(=O)n(-c2ccccc2)n1C
- IC50 [9]: 81.2 µM (inactive)

SMILES: Cc1ccccc1N(C(=O)c1cccs1)c1nc2ccccc2s1
- IC50 [10]: 1.52 µM (active)

SMILES: O=c1oc(-c2ccc(Br)o2)nc2ccccc12
- IC50 [11]: 2.66 µM (active)
- IC50 [12]: > 50 µM (inactive)

SMILES: COc1ccccc1N1CCN(c2ccc([N+](=O)[O-])cc2Cl)CC1
- EC50 [13]: > 71.5 µM (inactive)

SMILES: CCc1nc(C)cn1S(=O)(=O)c1cc([N+](=O)[O-])ccc1Cl
- IC50 [14]: 2.59 µM (active)
- EC50 [15]: 8.45 µM (inconclusive)
- IC50 [16]: 2.53 µM (active)
- EC50 [17]: 4.81 µM (inconclusive)
- IC50 [10]: 6.53 µM (active)
- EC50 [18]: 3.93 µM (active)
- EC50 [19]: 7.62 µM (inconclusive)

SMILES: NS(=O)(=O)c1ccc(NNC(=O)c2sccc2Cl)cc1
- IC50 [12]: > 50 µM (inactive)

SMILES: O=C(Nc1cccnc1)c1ccc(S(=O)(=O)N2CCCCCC2)cc1
- IC50 [9]: > 100 µM (inactive)

SMILES: O=C1NC(=O)N(Cc2ccc(F)cc2)C(=O)/C1=C/NNc1ccccc1
- EC50 [13]: > 71.5 µM (inactive)
- AC50 [20]: 0.438 µM (active)

SMILES: CC1=NN(c2ccc(C)cc2)C(=O)/C1=C\C=C\c1ccccc1
- IC50 [21]: 21.1 µM (active)

SMILES: CNC(=O)NC(=O)C(C)OC(=O)c1oc2ccccc2c1CSc1ccc(Cl)cc1 (configuration not stated)
- AC50 [22]: 12.3 µM (active)
- Absolute IC50 (XBP1) [8]: 10 µM

SMILES: O=C(Nc1cc(Cl)ccc1C(=O)O)c1ccc(OC(F)(F)F)cc1
- IC50 [23]: > 25 µM (inactive)

SMILES: O=c1c2c(Br)cccc2sn1-c1ccccc1
- IC50 [23]: 1.93 µM (active)

SMILES: Cc1ccsc1/C=N/NC(=O)c1ccc2c(c1)OCCO2
- IC50 [12]: > 50 µM (inactive)
- AC50 [24]: 7.87 µM (active)
